Laboratory results from patent US8945540B2, “Compositions for enhancing the antibacterial activity of myeloperoxidase and methods of use thereof” (Exoxemis, Inc., priority 2008, dated 2015).
Where two headings read alike, the source gives them in different places. Where a SMILES comes first, the peptide text is derived from it.

Experiments:
[1] = test system: Staphylococcus aureus; test: Microbicidal activity of the myeloperoxidase system (p-MPO, glucose oxidase, glucose) with amino acids in the presence of blood, CFU plate counts; synergy determination from these CFU; type: cell-based; conditions: for Average Viability CFU/ml 60 min / Log Reduction 60 min / Log 10 (CFU + 1) Survivors 60 min: MPO 38 U/ml, GO 33.3 U/ml, blood; for Average Viability CFU/ml 50 min / Log Reduction 50 min: MPO 4.7 U/ml, GO 4.2 U/ml
Description: Bacterial suspensions, specifically Staphylococcus aureus in this example, were prepared by the shake flask method to achieve late log to early stationary phase growth. Bacteria were grown 24 hours in trypticase soy broth (TSB) at 35° C. The cultures were centrifuged at 4,000 rpm for 10 minutes and the supernatants removed. The pellet was collected and washed twice with sterile 0.9% normal saline (NS). The washed microorganisms were suspended and diluted with normal saline to a 3 McFarland standard, i.e., approximately 10^9 bacteria colony forming units (CFU) per mL. Actual colony counts are confirmed by serial dilutions (10^−1 to 10^−5 or 10^−6) plated on TSA and incubated overnight at 35° C. To obtain an approximate final working target inoculum of 10^7 CFU/mL, 15 microliters of organisms per mL of final reaction mixture are used.
Glucose oxidase (GO) from Aspergillus Niger was purchased from Biozyme, Inc., UK, Cat #GO3A, 270 U/mg). Porcine Myeloperoxidase (p-MPO) (Exoxemis, Inc., Little Rock, Ark. U.S.A., 375 U/mg). Sterile stock solutions of D-glucose and sodium chloride were prepared and used at a final concentration of 150 mM each. L-Lysine hydrochloride (Spectrum Chemical Cat #L1142) was prepared as a 100 mM stock solution. Catalase (Sigma, Cat #C-40) was prepared as a 1% stock solution in sterile 0.9% normal saline. Blood was collected by venipuncture and used as whole blood within the same day.
Staphylococcus aureus were used to give a final target concentration of 2-3×10^7 CFU (7.4 log 10) per mL and venous whole blood was used to give a final concentration of 3%. Glucose was added to the reaction mixtures to a final concentration of 150 mM, which initiated the microbicidal reaction. The final volume of the reaction mixtures was 1 mL. The reactions were allowed to run from 30 minutes to 2 hours, as needed, at room temperature or at 37° C. in a dry bath. At the specified time points the reaction mixtures were treated with 100 microliters of a catalase solution, containing a minimum of 100 units/μL, to consume remaining peroxide and terminate the oxidative killing. Serial dilution plate counts were performed from the contents of each vial in sterile saline and inoculated onto trypticase soy agar (TSA) for quantitative culture. Plates were then incubated at 37° C. and counts taken at 24 hours. […] The results are shown in Table 1, as the average of 2 replicates.
The amino acids alone, in the absence of MPO were tested to rule out their microbicidal activity. The results are shown in Table 2 to Table 6, as the average of 2 replicates.
The amino acid analogues alone, in the absence of MPO, were tested to rule out their microbicidal activity. […]
The effect of two-way combinations of individual amino acids with L-isoleucine, as potential enhancing agents, for MPO microbicidal action in the presence of blood, was therefore examined by following the procedure of Example 5.
The Actual CFU observed for the pair is then divided by the Predicted CFU and multiplied by 100 to calculate the % of Predicted value. This value is then to be compared to the threshold value, discussed in the next section, to determine whether the pair are synergistic, antagonistic, or additive.
Calculation of appropriate threshold values for determination of synergism and antagonism was based upon the variability of replicated CFU survivor measures.

[2] = test system: Staphylococcus aureus; test: Control: microbicidal activity of the amino acid or analogue alone (no glucose, MPO, glucose oxidase) in the presence of blood; type: cell-based; conditions: for log reduction at 5000 µM: Staphylococcus aureus, 1 h, read-out: Log Reduction 60 min
Source text: As a control to determine the microbicidal activity of the amino acids alone, the foregoing procedure was followed without replication, except in the absence of glucose, MPO, and glucose oxidase.

[3] = MPO 100 μg/mL, AA 20 mM, 30 min
[4] = MPO 100 μg/mL, AA 20 mM, 60 min
[5] = Table 5, amino acid 5 mM (none: 0 mM)
[6] = Table 10, single amino acid 2.5 mM, in the presence of blood
[7] = Table 11, single amino acid 2.5 mM, in the presence of blood
[8] = Table 13, single amino acid 2.5 mM, in the presence of blood
[9] = Table 14, single amino acid 2.5 mM, in the presence of blood
[10] = Table 19, amino acid (racemic, L- or D-form) 2.5 mM
[11] = amino acid alone 5 mM, MPO 0, GO 0, no glucose, blood, without replication
[12] = Table 7, amino acid analogue 5 mM
[13] = amino acid analogue alone 5 mM, MPO 0, GO 0, no glucose, blood
[14] = Table 3, amino acid 5 mM (none: 0 mM)
[15] = Table 4, amino acid 5 mM (none: 0 mM)
[16] = Table 2, amino acid 5 mM (none: 0 mM)

Row | SMILES | Log 10 (CFU + 1) Survivors ([1]; MPO 25 μg/mL, AA 5 mM, 30 min) | Log 10 (CFU + 1) Survivors ([1]; MPO 25 μg/mL, AA 5 mM, 60 min) | Log 10 (CFU + 1) Survivors ([1]; MPO 25 μg/mL, AA […], 30 min) | Log 10 (CFU + 1) Survivors ([1]; MPO 25 μg/mL, AA […], 60 min) | Log 10 (CFU + 1) Survivors ([1]; MPO 100 μg/mL, AA 5 mM, 30 min) | Log 10 (CFU + 1) Survivors ([1]; MPO 100 μg/mL, AA 5 mM, 60 min) | Log 10 (CFU + 1) Survivors [1, 3] | Log 10 (CFU + 1) Survivors [1, 4] | Average Viability CFU/ml 60 min [1, 5] | Log Reduction 60 min [1, 5] | Average Viability CFU/ml 50 min [1, 7] | Log Reduction 50 min [1, 7] | Average Viability CFU/ml 50 min [1, 8] | Log Reduction 50 min [1, 8] | log reduction at 5000 µM [2, 11] | Average Viability CFU/ml 60 min [2, 11] | further results
1 | N[C@H](Cc1ccccc1)C(=O)O [D-Phenylalanine] | 5.1 | 0.0 | 7.2 | 4.9 | 0.0 | 0.0 | 0.0 | 0.0 | 0 CFU/ml | 7.4 | 9300000 CFU/ml | 0.5 | 8850000 CFU/ml | 0.4 | 0 | 24200000 CFU/ml | Average Viability CFU/ml 50 min [1, 6]: 7950000 CFU/ml; Log Reduction 50 min [1, 6]: 0.5; Average Viability CFU/ml 50 min [1, 9]: 7950000 CFU/ml; Log Reduction 50 min [1, 9]: 0.5; Average Viability CFU/ml 50 min [1, 10]: 8700000 CFU/ml; Log Reduction 50 min [1, 10]: 0.5
2 | COC(=O)CN.Cl [Glycine methyl ester hydrochloride] |  |  |  |  |  |  |  |  |  |  |  |  |  |  |  |  | Average Viability CFU/ml 60 min [1, 12]: 0 CFU/ml; Log Reduction 60 min [1, 12]: 7.4; log reduction at 5000 µM [2]: 0; Average Viability CFU/ml 60 min [2, 13]: 21100000 CFU/ml
3 | CSCC[C@@H](N)C(=O)O [D-Methionine] |  |  |  |  |  |  |  |  | 9400000 CFU/ml | 0.4 |  |  |  |  | 0.1 | 21100000 CFU/ml | 
4 | N[C@H](CO)C(=O)O [D-Serine] | 6.8 | 6.5 | 6.7 | 6.0 | 6.0 | 0.0 | 6.0 | 3.9 | 0 CFU/ml | 7.4 | 945000 CFU/ml | 1.5 |  |  | 0 | 23100000 CFU/ml | 
5 | O=C(O)[C@@H]1C[C@@H](O)CN1 [L-Hydroxyproline] | 7.3 | 7.3 | 7.4 | 6.1 | 7.2 | 0.9 | 7.2 | 7.3 |  |  |  |  | 11450000 CFU/ml | 0.3 |  | 20400000 CFU/ml | Average Viability CFU/ml 60 min [1, 14]: 0 CFU/ml; Log 10 (CFU + 1) Survivors 60 min [1, 14]: 0.0; Log Reduction 60 min [1, 14]: 7.3; Average Viability CFU/ml 50 min [1, 6]: 13100000 CFU/ml; Log Reduction 50 min [1, 6]: 0.3; Average Viability CFU/ml 50 min [1, 9]: 11550000 CFU/ml; Log Reduction 50 min [1, 9]: 0.4; log reduction at 5000 µM [2]: 0
6 | C[C@H](N)C(=O)N[C@@H](C)C(=O)O [L-Ala-L-ala] (H-Ala-Ala-OH) |  |  |  |  |  |  |  |  |  |  |  |  |  |  |  | 26100000 CFU/ml | Average Viability CFU/ml 60 min [1, 15]: 238500 CFU/ml; Log Reduction 60 min [1, 15]: 2.0; Log Reduction 60 min [2, 11]: 0.0
7 | N[C@H](Cc1c[nH]cn1)C(=O)O [D-Histidine] | 7.0 | 6.0 | 6.9 | 5.8 | 5.1 | 4.1 | 6.8 | 3.9 | 10900 CFU/ml | 3.4 | 8000000 CFU/ml | 0.5 |  |  | 0 | 22300000 CFU/ml | 
8 | CCOC(=O)CC(C)N (stereo not shown) [Ethyl 3-aminobutyrate] |  |  |  |  |  |  |  |  |  |  |  |  |  |  |  |  | Average Viability CFU/ml 60 min [1, 12]: 0 CFU/ml; Log Reduction 60 min [1, 12]: 7.4; log reduction at 5000 µM [2, 13]: 0; Average Viability CFU/ml 60 min [2, 13]: 20900000 CFU/ml
9 | N[C@@H](Cc1ccc(O)cc1)C(=O)O [L-Tyrosine] | 7.3 | 7.1 | 7.3 | 7.0 | 7.3 | 5.8 | 7.3 | 7.2 |  |  |  |  | 890000 CFU/ml | 1.4 | 0 | 21600000 CFU/ml | Average Viability CFU/ml 60 min [1, 14]: 630000 CFU/ml; Log 10 (CFU + 1) Survivors 60 min [1, 14]: 5.8; Log Reduction 60 min [1, 14]: 1.5; Average Viability CFU/ml 50 min [1, 9]: 1450000 CFU/ml; Log Reduction 50 min [1, 9]: 1.3
10 | N[C@H](Cc1c[nH]c2ccccc12)C(=O)O [D-Tryptophan] |  |  |  |  |  |  |  |  |  |  |  |  |  |  |  | 22600000 CFU/ml | Average Viability CFU/ml 60 min [1, 15]: 19700000 CFU/ml; Log Reduction 60 min [1, 15]: 0.1; log reduction at 5000 µM [2]: 0.1
11 | O=C(O)CNC(=O)c1ccccc1 [Hippuric acid] | 7.3 | 5.9 | 6.7 | 5.8 | 7.3 | 5.9 | 6.8 | 5.0 |  |  |  |  |  |  | 0 | 19700000 CFU/ml | Average Viability CFU/ml 60 min [1, 14]: 865000 CFU/ml; Log 10 (CFU + 1) Survivors 60 min [1, 14]: 5.9; Log Reduction 60 min [1, 14]: 1.4
12 | N[C@@H](Cc1c[nH]cn1)C(=O)O [L-Histidine] | 7.3 | 7.3 | 7.3 | 7.3 | 6.8 | 4.7 | 7.3 | 7.3 |  |  | 7000000 CFU/ml | 0.6 | 4750000 CFU/ml | 0.7 | 0 | 22700000 CFU/ml | Average Viability CFU/ml 60 min [1, 16]: 48000 CFU/ml; Log 10 (CFU + 1) Survivors 60 min [1, 16]: 4.7; Log Reduction 60 min [1, 16]: 2.7; Average Viability CFU/ml 50 min [1, 6]: 7000000 CFU/ml; Log Reduction 50 min [1, 6]: 0.5
13 | COC(=O)[C@@H](N)Cc1ccc(O)cc1.Cl [L-Tyrosine methyl ester hydrochloride] |  |  |  |  |  |  |  |  |  |  |  |  |  |  |  |  | Average Viability CFU/ml 60 min [1, 12]: 87000 CFU/ml; Log Reduction 60 min [1, 12]: 2.4; log reduction at 5000 µM [2, 13]: 0; Average Viability CFU/ml 60 min [2, 13]: 20900000 CFU/ml
